Test results: ChEMBL document CHEMBL5291721, “A preclinical secondary pharmacology resource illuminates target-adverse drug reaction associations of marketed drugs” (Nat Commun, 2023)

What was measured:
[1] = target: T1, Neuropeptide Y receptor type 1 (Homo sapiens, UniProt P25929)
T1 sequence (P25929 whole entry): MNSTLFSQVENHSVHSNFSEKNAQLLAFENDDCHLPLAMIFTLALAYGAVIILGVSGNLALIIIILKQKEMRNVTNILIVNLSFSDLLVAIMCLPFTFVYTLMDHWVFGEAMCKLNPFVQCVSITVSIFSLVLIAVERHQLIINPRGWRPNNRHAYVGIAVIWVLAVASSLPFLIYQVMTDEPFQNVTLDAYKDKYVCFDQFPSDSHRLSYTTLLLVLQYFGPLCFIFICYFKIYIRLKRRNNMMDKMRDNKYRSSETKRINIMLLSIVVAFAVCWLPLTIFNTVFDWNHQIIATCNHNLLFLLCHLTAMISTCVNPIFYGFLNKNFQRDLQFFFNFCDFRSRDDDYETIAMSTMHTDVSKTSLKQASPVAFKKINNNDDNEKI

[2] = target: Voltage-dependent L-type calcium channel subunit alpha-1C (Rattus norvegicus, UniProt P22002); type: functional
Voltage-dependent L-type calcium channel subunit alpha-1C, sequence (P22002 whole entry): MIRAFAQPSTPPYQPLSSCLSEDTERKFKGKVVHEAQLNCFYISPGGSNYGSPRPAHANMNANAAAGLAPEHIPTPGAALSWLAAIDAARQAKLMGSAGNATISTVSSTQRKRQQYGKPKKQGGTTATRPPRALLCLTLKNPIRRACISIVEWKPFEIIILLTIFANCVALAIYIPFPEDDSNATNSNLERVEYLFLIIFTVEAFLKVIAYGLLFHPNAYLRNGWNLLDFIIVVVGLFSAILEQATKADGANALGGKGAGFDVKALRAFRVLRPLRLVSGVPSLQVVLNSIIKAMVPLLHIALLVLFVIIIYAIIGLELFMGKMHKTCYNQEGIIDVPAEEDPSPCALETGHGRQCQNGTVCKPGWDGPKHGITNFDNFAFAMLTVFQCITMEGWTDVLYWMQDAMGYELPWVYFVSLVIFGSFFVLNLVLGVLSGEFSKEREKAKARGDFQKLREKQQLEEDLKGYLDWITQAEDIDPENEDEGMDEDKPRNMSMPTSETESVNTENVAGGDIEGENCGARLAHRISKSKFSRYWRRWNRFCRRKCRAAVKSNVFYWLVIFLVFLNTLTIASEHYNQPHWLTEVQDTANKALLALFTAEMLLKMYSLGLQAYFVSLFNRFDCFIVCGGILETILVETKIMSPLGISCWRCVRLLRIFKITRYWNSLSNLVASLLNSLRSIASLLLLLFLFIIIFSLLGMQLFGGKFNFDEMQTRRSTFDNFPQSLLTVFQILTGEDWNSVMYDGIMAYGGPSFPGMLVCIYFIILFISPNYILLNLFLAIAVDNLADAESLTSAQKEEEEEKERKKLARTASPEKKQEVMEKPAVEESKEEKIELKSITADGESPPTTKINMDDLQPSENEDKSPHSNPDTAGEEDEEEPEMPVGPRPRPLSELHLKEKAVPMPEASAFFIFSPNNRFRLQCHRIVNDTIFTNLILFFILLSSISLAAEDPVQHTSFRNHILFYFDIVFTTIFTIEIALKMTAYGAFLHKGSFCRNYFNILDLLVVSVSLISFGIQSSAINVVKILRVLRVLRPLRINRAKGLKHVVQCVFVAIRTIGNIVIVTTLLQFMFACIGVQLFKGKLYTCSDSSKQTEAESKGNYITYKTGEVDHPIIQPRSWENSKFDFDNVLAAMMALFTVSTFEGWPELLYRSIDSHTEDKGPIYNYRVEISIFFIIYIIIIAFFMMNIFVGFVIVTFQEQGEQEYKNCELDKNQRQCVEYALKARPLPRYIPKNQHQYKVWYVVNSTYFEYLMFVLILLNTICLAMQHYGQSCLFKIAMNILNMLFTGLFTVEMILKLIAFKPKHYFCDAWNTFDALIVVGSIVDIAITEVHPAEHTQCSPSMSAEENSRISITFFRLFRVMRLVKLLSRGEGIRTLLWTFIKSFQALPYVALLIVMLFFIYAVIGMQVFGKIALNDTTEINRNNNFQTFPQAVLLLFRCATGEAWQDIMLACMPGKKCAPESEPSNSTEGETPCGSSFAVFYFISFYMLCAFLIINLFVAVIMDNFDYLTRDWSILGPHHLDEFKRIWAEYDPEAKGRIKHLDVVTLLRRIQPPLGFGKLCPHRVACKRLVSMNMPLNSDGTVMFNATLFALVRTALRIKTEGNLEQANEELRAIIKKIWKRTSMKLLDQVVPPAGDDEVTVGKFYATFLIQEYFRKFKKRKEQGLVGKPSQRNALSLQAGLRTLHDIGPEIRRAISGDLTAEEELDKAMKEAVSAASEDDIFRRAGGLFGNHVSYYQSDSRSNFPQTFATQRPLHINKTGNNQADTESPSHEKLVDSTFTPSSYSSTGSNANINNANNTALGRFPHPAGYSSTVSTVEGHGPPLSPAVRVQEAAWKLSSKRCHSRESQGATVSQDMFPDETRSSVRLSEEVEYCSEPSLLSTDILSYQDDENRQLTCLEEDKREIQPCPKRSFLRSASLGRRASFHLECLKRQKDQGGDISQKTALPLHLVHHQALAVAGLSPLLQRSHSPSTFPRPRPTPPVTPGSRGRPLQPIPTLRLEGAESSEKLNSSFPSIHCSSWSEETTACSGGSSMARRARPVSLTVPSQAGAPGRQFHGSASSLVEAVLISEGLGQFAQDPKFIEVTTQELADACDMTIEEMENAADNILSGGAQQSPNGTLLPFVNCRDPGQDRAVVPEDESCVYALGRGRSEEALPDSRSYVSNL

Estrogen receptor = target: T2, Estrogen receptor (Homo sapiens, UniProt P03372)
T2 sequence (P03372 whole entry): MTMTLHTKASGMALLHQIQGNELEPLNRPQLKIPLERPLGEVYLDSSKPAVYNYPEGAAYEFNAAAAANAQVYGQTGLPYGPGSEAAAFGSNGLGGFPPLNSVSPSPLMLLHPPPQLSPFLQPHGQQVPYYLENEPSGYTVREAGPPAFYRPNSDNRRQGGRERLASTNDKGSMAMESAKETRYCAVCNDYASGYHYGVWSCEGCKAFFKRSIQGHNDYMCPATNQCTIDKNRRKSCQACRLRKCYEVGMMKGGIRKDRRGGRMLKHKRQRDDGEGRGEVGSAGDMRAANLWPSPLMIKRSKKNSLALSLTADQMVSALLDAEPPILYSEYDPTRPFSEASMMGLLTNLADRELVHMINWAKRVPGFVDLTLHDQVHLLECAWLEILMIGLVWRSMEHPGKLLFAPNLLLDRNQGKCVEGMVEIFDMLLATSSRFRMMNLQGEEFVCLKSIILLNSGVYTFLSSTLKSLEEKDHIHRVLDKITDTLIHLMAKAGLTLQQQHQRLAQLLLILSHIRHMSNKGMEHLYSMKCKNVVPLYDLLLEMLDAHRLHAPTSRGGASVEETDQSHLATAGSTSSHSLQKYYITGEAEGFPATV

[3] = target: T3, Alpha-2B adrenergic receptor (Homo sapiens, UniProt P18089)
T3 sequence (P18089 whole entry): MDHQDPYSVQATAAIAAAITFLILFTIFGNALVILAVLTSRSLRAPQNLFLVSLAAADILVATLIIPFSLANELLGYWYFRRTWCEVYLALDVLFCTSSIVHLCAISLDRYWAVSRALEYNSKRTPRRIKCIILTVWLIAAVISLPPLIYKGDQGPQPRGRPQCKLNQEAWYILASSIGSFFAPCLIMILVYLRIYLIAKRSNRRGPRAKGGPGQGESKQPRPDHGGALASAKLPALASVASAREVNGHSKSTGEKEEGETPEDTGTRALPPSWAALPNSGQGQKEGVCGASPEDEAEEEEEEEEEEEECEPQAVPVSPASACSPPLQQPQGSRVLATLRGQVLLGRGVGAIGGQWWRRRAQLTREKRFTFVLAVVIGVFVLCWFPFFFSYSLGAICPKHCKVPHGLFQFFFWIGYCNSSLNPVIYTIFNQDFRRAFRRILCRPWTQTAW

[4] = target: T4, Muscarinic acetylcholine receptor M1 (Homo sapiens, UniProt P11229); type: functional
T4 sequence (P11229 whole entry): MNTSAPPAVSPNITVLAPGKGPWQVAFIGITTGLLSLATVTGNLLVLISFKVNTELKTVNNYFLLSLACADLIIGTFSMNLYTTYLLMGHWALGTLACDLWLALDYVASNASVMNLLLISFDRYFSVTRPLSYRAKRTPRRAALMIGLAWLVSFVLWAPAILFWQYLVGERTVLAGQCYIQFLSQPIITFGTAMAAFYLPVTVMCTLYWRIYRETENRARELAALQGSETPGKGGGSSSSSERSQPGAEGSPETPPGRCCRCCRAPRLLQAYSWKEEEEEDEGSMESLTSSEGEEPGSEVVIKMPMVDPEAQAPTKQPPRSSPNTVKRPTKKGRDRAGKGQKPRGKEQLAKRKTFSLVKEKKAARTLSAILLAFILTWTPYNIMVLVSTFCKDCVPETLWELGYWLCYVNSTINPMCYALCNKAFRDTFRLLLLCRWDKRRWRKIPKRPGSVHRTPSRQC

Cannabinoid receptor 1 = Cannabinoid receptor 1 (Homo sapiens, UniProt P21554); type: functional, cell-based
Cannabinoid receptor 1, sequence (P21554 whole entry): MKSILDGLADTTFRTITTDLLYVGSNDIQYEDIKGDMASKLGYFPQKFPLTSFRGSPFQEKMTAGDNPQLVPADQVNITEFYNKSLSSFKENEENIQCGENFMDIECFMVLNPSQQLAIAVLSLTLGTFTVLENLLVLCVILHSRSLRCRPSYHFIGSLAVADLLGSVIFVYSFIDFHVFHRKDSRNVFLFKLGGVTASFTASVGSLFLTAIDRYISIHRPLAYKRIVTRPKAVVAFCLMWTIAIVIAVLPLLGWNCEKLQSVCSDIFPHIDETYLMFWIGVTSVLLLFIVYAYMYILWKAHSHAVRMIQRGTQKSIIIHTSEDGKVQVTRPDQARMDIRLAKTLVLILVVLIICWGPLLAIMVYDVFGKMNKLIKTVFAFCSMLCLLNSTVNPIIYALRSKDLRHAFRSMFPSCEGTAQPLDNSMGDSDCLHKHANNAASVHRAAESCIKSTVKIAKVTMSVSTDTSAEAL

[5] = target: 3',5'-cyclic-AMP phosphodiesterase 4A (Homo sapiens, UniProt P27815); type: functional
3',5'-cyclic-AMP phosphodiesterase 4A, sequence (P27815 whole entry): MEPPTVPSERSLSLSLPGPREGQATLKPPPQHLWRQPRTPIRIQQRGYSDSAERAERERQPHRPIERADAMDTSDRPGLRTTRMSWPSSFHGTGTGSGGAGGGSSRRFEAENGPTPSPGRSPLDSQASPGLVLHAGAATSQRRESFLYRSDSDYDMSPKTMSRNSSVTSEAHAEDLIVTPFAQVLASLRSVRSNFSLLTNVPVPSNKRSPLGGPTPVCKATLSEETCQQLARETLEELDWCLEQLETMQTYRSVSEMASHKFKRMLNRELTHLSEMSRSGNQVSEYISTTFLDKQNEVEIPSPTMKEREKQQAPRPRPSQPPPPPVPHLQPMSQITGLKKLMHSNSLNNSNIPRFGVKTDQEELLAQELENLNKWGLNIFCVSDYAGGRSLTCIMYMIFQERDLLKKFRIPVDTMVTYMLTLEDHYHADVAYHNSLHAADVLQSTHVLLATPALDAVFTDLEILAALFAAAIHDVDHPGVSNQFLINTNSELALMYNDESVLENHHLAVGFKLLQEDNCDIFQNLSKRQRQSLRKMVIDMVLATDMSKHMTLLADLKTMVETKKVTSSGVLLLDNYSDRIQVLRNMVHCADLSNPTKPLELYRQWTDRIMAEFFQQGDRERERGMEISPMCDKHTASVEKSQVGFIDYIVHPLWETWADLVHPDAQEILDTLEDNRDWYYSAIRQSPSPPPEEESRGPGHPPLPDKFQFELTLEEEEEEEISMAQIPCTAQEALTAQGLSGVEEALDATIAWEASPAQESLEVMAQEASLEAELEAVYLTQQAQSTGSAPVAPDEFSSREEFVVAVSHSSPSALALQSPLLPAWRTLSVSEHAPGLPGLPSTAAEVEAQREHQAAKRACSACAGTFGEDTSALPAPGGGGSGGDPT

Mu-type opioid receptor = Mu-type opioid receptor (Homo sapiens, UniProt P35372)
Mu-type opioid receptor, sequence (P35372 whole entry): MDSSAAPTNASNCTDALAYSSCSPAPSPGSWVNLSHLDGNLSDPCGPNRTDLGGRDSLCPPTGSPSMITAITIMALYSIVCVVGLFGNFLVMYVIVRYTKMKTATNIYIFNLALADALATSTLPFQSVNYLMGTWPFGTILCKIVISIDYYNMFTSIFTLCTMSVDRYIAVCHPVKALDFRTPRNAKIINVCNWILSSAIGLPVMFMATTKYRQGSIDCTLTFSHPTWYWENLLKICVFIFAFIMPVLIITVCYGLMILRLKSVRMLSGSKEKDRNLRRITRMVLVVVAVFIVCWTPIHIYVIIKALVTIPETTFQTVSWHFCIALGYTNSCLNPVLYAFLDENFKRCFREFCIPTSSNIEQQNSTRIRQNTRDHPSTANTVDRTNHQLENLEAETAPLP
Also: assay procedure not described here.

| Structure (SMILES) | AC50 [3] [µM] | AC50 [4] [µM] | AC50 (Cannabinoid receptor 1) [µM] | AC50 [5] [µM] | AC50 (Mu-type opioid receptor) [µM] | also measured |
| --- | --- | --- | --- | --- | --- | --- |
| COC(=O)N[C@H](C(=O)N1CCC[C@H]1c1nc(-c2ccc(-c3ccc(-c4c[nH]c([C@@H]5CCCN5C(=O)[C@@H](NC(=O)OC)C(C)C)n4)cc3)cc2)c[nH]1)C(C)C | > 30 | > 30 | – | – | – | AC50 [1]: > 30 µM; AC50 [2]: > 30 µM; AC50 (Estrogen receptor): > 30 µM |
| CC(=O)c1ccc2c(c1)N(CCCN1CCN(CCO)CC1)c1ccccc1S2 [ACETOPHENAZINE] | 0.056 | > 30 | > 30 | – | – | – |
| CN1CCCC(n2nc(Cc3ccc(Cl)cc3)c3ccccc3c2=O)CC1 (stereo not drawn) [AZELASTINE] | 3.8 | – | > 30 | – | – | – |
| N[C@@H](C(=O)N[C@@H]1C(=O)N2C(C(=O)O)=C(Cl)CS[C@H]12)c1ccccc1 [CEFACLOR ANHYDROUS] | > 30 | > 30 | > 30 | – | – | AC50 [1]: > 30 µM; AC50 (Estrogen receptor): > 30 µM |
| Cc1cc(O)cc(C)c1Cl [CHLOROXYLENOL] | – | – | – | > 30 | > 30 | – |
| CC(=O)OCC(=O)[C@@]1(O)CC[C@H]2[C@@H]3CCC4=CC(=O)CC[C@]4(C)[C@H]3C(=O)C[C@@]21C [CORTISONE ACETATE] | – | – | > 30 | – | – | – |
| CCC(=O)O[C@H]1[C@H](O[C@@H]2[C@@H](C)[C@H](O[C@H]3C[C@@](C)(OC)[C@@H](O)[C@H](C)O3)[C@@H](C)C(=O)O[C@H](CC)[C@@](C)(O)[C@H](O)[C@@H](C)C(=O)[C@H](C)C[C@@]2(C)O)O[C@H](C)C[C@@H]1N(C)C [ERYTHROMYCIN PROPIONATE] | – | – | – | > 30 | 16.2 | – |
| Cc1c(-c2ccccc2)oc2c(C(=O)OCCN3CCCCC3)cccc2c1=O [FLAVOXATE] | – | – | – | 6.12 | 3.05 | – |
| CC1(C)O[C@@H]2C[C@H]3[C@@H]4C[C@H](F)C5=CC(=O)CC[C@]5(C)[C@H]4[C@@H](O)C[C@]3(C)[C@]2(C(=O)CO)O1 [FLURANDRENOLIDE] | – | – | – | > 30 | > 30 | – |
| COc1ccc2c(c1)C(=O)N(CCc1ccc(S(=O)(=O)NC(=O)NC3CCCCC3)cc1)C(=O)C2(C)C [GLIQUIDONE] | > 30 | > 30 | – | – | – | AC50 [1]: > 30 µM; AC50 [2]: > 30 µM; AC50 (Estrogen receptor): > 30 µM |
| CC(C)Cc1ccc(CC(=O)O)cc1 [IBUFENAC] | > 30 | > 30 | > 30 | – | – | – |
| CC(C)NNC(=O)c1ccncc1 [IPRONIAZID] | – | – | > 30 | – | – | – |
| C#C[C@]1(O)CC[C@H]2[C@@H]3CCC4=CC(=O)CC[C@@H]4[C@H]3CC[C@@]21CC [LEVONORGESTREL] | – | – | – | > 30 | > 30 | – |
| OC[C@@H](O)[C@@H](O)[C@H](O)[C@H](O)CO [MANNITOL] | – | – | – | > 30 | > 30 | – |
| CN1CCCC(CN2c3ccccc3Sc3ccccc32)C1 (stereo not drawn) [MEPAZINE] | – | – | – | > 30 | 6.07 | – |
| Sc1ncnc2nc[nH]c12 [MERCAPTOPURINE ANHYDROUS] | – | – | – | > 30 | > 30 | – |
| C[N+]1(C)[C@@H]2C[C@@H](OC(=O)[C@H](CO)c3ccccc3)C[C@H]1[C@@H]1O[C@@H]12 [METHSCOPOLAMINE] | – | – | – | > 30 | > 30 | – |
| Cc1cccc(C)c1OCC(C)N (stereo not drawn) [MEXILETINE] | – | – | > 30 | – | – | AC50 [1]: > 30 µM; AC50 (Estrogen receptor): > 30 µM |
| NC(=O)c1ncn([C@@H]2O[C@H](CO)[C@@H](O)[C@H]2O)c1O [MIZORIBINE] | > 30 | > 30 | > 30 | – | – | AC50 [1]: > 30 µM; AC50 (Estrogen receptor): > 30 µM |
| O=C1CC[C@@]2(O)[C@H]3Cc4ccc(O)c5c4[C@@]2(CCN3CC2CC2)[C@H]1O5 [NALTREXONE] | – | – | – | > 30 | – | – |
| CC(O)CO (stereo not drawn) [PROPYLENE GLYCOL] | – | – | – | > 30 | > 30 | – |
| CS(=O)(=O)c1ccc([C@@H](O)[C@@H](CO)NC(=O)C(Cl)Cl)cc1 [THIAMPHENICOL] | – | – | > 30 | > 30 | > 30 | AC50 [1]: > 30 µM; AC50 [2]: > 30 µM; AC50 (Estrogen receptor): > 30 µM |
| OCc1cc([C@@H](O)CNCCCCCCOCCOCc2c(Cl)cccc2Cl)ccc1O [VILANTEROL] | > 30 | > 30 | > 30 | – | – | – |
